Source: the NIST ThermoML archive (doi:10.1016/j.jct.2004.12.004)

Assay: mn = molality of the nth substance listed, in mol/kg
Conditions: 350 kPa, Liquid, Extra sensitive DSC

OC[C@H]1O[C@@H](O[C@H]2[C@H](O)[C@@H](O)[C@H](O)O[C@@H]2CO)[C@H](O)[C@@H](O)[C@@H]1O [D-cellobiose] + O
apparent molar heat capacity [J/K/mol]
Conditions | m1 = 0.03222 | m1 = 0.05175 | m1 = 0.07986 | m1 = 0.09996 | m1 = 0.1501 | m1 = 0.3084
278.15 K | 562.9 | 563 | 562 | 561.2 | 563 | 566.4
283.15 K | 593 | 592.8 | 591.5 | 590.9 | 592 | 594.5
288.15 K | 619.4 | 618.8 | 617.3 | 616.9 | 617.5 | 619.6
293.15 K | 641.7 | 641.1 | 639.4 | 639.2 | 639.5 | 641.1
298.15 K | 661.3 | 660.7 | 658.6 | 658.8 | 658.7 | 660.1
303.15 K | 678.3 | 677.8 | 675.4 | 676.2 | 675.7 | 676.9
308.15 K | 693.2 | 692.9 | 690.6 | 691.5 | 690.9 | 691.8
313.15 K | 706.5 | 706.5 | 704.1 | 705 | 704.3 | 705.1
318.15 K | 718.8 | 718.9 | 716.6 | 717.5 | 716.7 | 717.3
323.15 K | 730 | 730.1 | 728 | 728.9 | 728.1 | 728.5
328.15 K | 740.4 | 740.7 | 738.6 | 739.5 | 738.7 | 739
333.15 K | 750.3 | 750.6 | 748.6 | 749.5 | 748.7 | 748.9
338.15 K | 759.6 | 759.9 | 758 | 758.9 | 758.1 | 758.3
343.15 K | 768.2 | 768.6 | 766.7 | 767.6 | 766.7 | 766.9
348.15 K | 776.4 | 776.6 | 774.8 | 775.8 | 774.9 | 775
353.15 K | 783.8 | 784.2 | 782.5 | 783.5 | 782.6 | 782.7
358.15 K | 791.1 | 791.5 | 789.8 | 790.8 | 789.9 | 789.9
363.15 K | 797.8 | 798.3 | 796.7 | 797.8 | 796.8 | 796.8
368.15 K | 803.8 | 804.6 | 803 | 804.1 | 803.1 | 803.1
373.15 K | 809.8 | 810.7 | 809 | 810.1 | 809.2 | 809.1
378.15 K | 815 | 816.2 | 814.6 | 815.8 | 814.7 | 814.7
383.15 K | 819.8 | 821.3 | 819.7 | 821.4 | 820 | 819.9
388.15 K | 823 | 825.3 | 824.1 | 827.6 | 824.9 | 824.8
393.15 K | 826.1 | 828.7 | 827.9 | 833 | 829.1 | 829.2
